Assay results published in US20120022149A1, “PHARMACEUTICAL COMPOSITION WITH ENHANCED SOLUBILITY CHARACTERISTICS” (priority 2010, published 2012).

Test: Solubility of olopatadine in PEG 6000 and/or PVP vehicles
Format: physicochemical
Details: Table 1 and FIG. 1

- solubility of olopatadine relative to the concentration of PEG6000: essentially linear
Compound: CN(C)CC/C=C1/c2ccccc2COc2ccc(CC(=O)O)cc21 [olopatadine]
